Reference: US10155047B2, “Polymers having therapeutically active agents conjugated thereto, processes of preparing same and uses thereof” (Ramot at Tel-Aviv University Ltd., priority 2012, dated 2018)
Each block holds one compound with its values, some of them ahead of it. Ends that are not written are not given here. PGA = not defined here

What was measured:
[1] = test system: HUVECs; assay: HUVEC proliferation assay (MTT, 72 hours); assay type: cell-based, human
Method: Human umbilical vein endothelial cells (HUVECs) were isolated from umbilical cords and were cultured in EGM-2 media.
(§1) After incubation cell viability was determined by MTT assay.
(§2) For evaluating anti-proliferative activity of a combination of PTX and DOX, cells were treated with varying concentrations of DOX with a set concentration of PTX or varying concentrations of PTX with a set concentration of DOX.
Same procedure was followed for other drugs and combination treatments.
(§3) In an exemplary procedure, selected inhibition concentration values (e.g., IC40, IC60 and IC80) of PTX, DOX and combinations thereof from a respective cell proliferation assay were collected. The selected inhibition concentration values of DOX and PTX were marked on X and Y axes respectively and a line which represents additive effect was drawn between each inhibitory concentration (IC). The combination index (CI) of each treatment was calculated according to the classic isobologram equation CI=[(D)1/(Dx)1]+[(D)2/(Dx)2].
The effect of PTX at various concentrations (0.0001, 0.001, 0.01, 0.1, 1, 10, 100, 1000, and 10,000 nM), and of doxorubicin at various concentrations (0.001, 0.001, 0.01, 0.1, 1, 10, 100, 1000, 10,000, 100,000 nM) on the proliferation of HUVEC p3 cells was tested. The obtained data is presented in FIG. 1A for PTX and in FIG. 1B for DOX.
For evaluating the effect of the combination treatment, 0.1 or 1 nM DOX with various concentrations of PTX and 0.1 or 1 nM PTX with various concentrations of DOX were tested.
The effect of PTX at various concentrations, TNP-470 at various concentrations and of various combinations of a set concentration of PTX and variable concentrations of TNP-470 and a set concentration of TNP-470 and variable concentrations of PTX, on proliferation of HUVECs, was tested. Similar assays were performed in the presence of 10,000 nM alendronate. The obtained data is presented in FIG. 7A (no alendronate) and in FIG. 7B (in the presence of alendronate).
The effect of the PGA-PTX-DOX conjugate (Route 1, see, FIG. 18) on HUVECs proliferation was tested and compared to the free drugs, each alone and in combination.

[2] = test system: MDA-MB-231 cells; assay: MDA-MB-231 cell proliferation assay (72 hours); assay type: cell-based, human; details: for IC20 / IC 40 / IC 60: MDA-MB-231, single drug
Method: Human MDA-MB-231 cells were purchased from American Tissue Culture Collection (ATCC), and were cultured in DMEM supplemented with 10% FBS, 100 μg/ml penicillin, 100 U/ml streptomycin, 12.5 U/ml nystatin. All Cells were grown at 37° C., 5% CO2.
(§4) In an exemplary procedure, cells were plated onto 96-well plates in appropriate complete medium for each cell line as described above, and incubated for 24 hours (37° C.; 5% CO2). On the following day cells were treated with e.g., paclitaxel at various concentrations (e.g., 0.0001, 0.001, 0.01, 0.1, 1, 10, 100, 1000, 10,000 nM) or, e.g., doxorubicin at various concentrations (e.g., 0.001, 0.001, 0.01, 0.1, 1, 10, 100, 1000, 10,000, 100,000 nM) for 72 hours. After incubation cell viability was determined by MTT assay.
as §2
Selected inhibition concentration values (e.g., IC50, IC40, IC60 and IC80 values (growth inhibition by 50, 40, 60 and 80% respectively) were derived from the obtained growth charts.
as §3
The effect of PTX, DOX and combinations thereof on the proliferation of human MDA-MB-231 cells was tested.
FIG. 6A presents the results obtained for PTX and DOX, each alone, at various concentrations within a range of 0.01-10000 nM, and for various concentrations of PTX with 20 nM DOX, and for various concentrations of DOX with 1 nM PTX. […] Data represents mean±SD.
In order to evaluate the combination treatment effect, data from combination treatment results were collected, analyzed and calculated according to CI equations. Combination treatments I (PTX+DOX 20 nM) and II (DOX+PTX 1 nM) inhibited MDA-MB-231 cells proliferation of IC 20, 40, 60 at 0.8, 4, 25 and 4, 150, 700 nM respectively.
The activity of a PGA-PTX-DOX conjugate (Route 2, see, FIG. 19D) was examined in vitro on proliferation of MDA-MB-231 human breast cancer cells. Cells were incubated with the conjugates PGA-PTX-DOX, PGA-PTX, PGA-DOX and combination of PGA-PTX and PGA-DOX (in the same ratio as on the PGA-PTX-DOX conjugate), the free drugs PTX, DOX and their combination (in the same ratio as on the PGA-PTX-DOX conjugate) and with PGA for 72 hours.

[3] = test system: ES-2 ovarian carcinoma cells; assay: ES-2 cell proliferation assay (72 hours); assay type: cell-based, human
Method: ES-2 human ovarian carcinoma cells were purchased from the ATCC.
as §1, §3
The effect of DOX and PTX combinations on viability of ES2 and Saos2 cells was examined. Cells were treated with PTX alone, DOX alone, varying concentrations of DOX with a set concentration of PTX (10 or 50 nM for ES2, 1 nM for Saos2) or varying concentrations of PTX with a set concentration of DOX (10 or 50 nM). IC20, IC40 and IC60 values (growth inhibition by 20, 40 and 60% respectively) were derived from the growth charts and combination index (CI) values were calculated.
The activity of PGA-PTX-DOX conjugate (Route 1, see, FIG. 18) and of PGA-PTX-DOX conjugate (Route 2, see, FIG. 19D) was examined in vitro on proliferation of ES-2 ovarian carcinoma cells.
(§5) The effect of DOX and PTX treatments on proliferation of ES2 and SK N MC cells after sorting to NCAM+/− and/or on unsorted cells was examined, to test whether NCAM+ cells are more resistant to chemotherapeutic drugs.

[4] = test system: SK N MC cells; assay: SK N MC cell proliferation assay after sorting to NCAM+/-; assay type: cell-based
Method: as §4
Cells were harvested and labeled as described above, and resuspended in the appropriate cell culture medium (according to cell type) with 5% FBS. Cells were filtrated with 100 μm cell strainer before sorting. Sorted cells were collected into tubes containing complete medium with 0.5 mg/ml gentamycin (Biological Industries, Israel). All work was done in sterile conditions.
as §5

[5] = test system: MDA-MB-231 cells; assay: Internalization and intracellular release of DOX, confocal microscopy; assay type: cell-based, human; details: 400 nM DOX-equivalent
Method: Internalization and intracellular release of DOX from the conjugates was evaluated by confocal microscopy (Leica SP5). MDA-MB-231 cells were incubated with free DOX and DOX-containing conjugates (PGA-DOX, PGA-PTX-DOX) at 400 nM equivalent concentrations for 20 minutes, 2, 6 or 24 hours. Following incubation, cells were washed, fixed with 4% PFA and mounted on glass slides using Prolong® Gold antifade reagent with DAPI (4′-6-Diamidino-2-phenylindole) (Invitrogen) for nucleus. DOX was excited at 488 nm and its emission was recorded at 550-700 nm.

[6] = test system: ES2 cells; assay: Binding to ES2 cells (FACS); assay type: cell-based, human
Method: Cells were washed with PBS, harvested using a cell scraper and labeled by incubation with APC-conjugated CD-56 antibody (Biolegend) for 45 min at 4° C. in the dark. Cells were washed three times with PBS and filtrated with 100 μm cell strainer (BD Falcon).
Binding of C3 (SEQ ID NO:3) to ES2 cells, and competition of binding of the NCAM-specific antibody APC-conjugated anti-human CD56 (NCAM) (BioLegend) and bFGF was examined by FACS.
PGA and PGA-C3 were labeled with FITC on the N-terminal of the PGA chain. Binding to ES-2 cells was examined by FACS.

[7] = test system: NCAM-expressing Mel-526 human melanoma cells; assay: Binding to NCAM-expressing Mel-526 cells; assay type: cell-based
[8] = test system: Saos-2 cells; assay: NTP binding to Saos2 cells (confocal microscopy); assay type: cell-based, human; details: fluorescently labeled peptides
Method: Cell specificity and uptake of the fluorescently labeled peptides was monitored utilizing a Zeiss Meta LSM 510 confocal imaging system. Cells were plated on glass slides and incubated overnight. The following day cells were incubated with 100 μM of CF-NTP or CF-scrambled peptide for 30 minutes at 37° C., washed several times with PBS, fixated with 4% paraformaldehyde, stained with Hoechst stain and mounted on slides. In order to examine intracellular trafficking of the peptide, cells were incubated with the peptides in serum free medium, washed several times with cold PBS and incubated with […] AlexaFluor 594 human transferrin for 1 h at 37° C. Cells were washed several times with PBS, fixated with 4% PFA, stained with Hoechst stain and mounted on slides.
Binding of NTP (SEQ ID NO:1) to Saos-2 cells, compared to binding of sNTP (SEQ ID NO:2), was examined by confocal microscopy. FITC-labeled targeting peptides were used. […] In experiments with transferrin, peptide was seen as intracellular aggregates or vesicles, though not colocalized with transferrin.

IC50 ([3]; ES2 cells sorted NCAM+): 300 nM | IC50 ([3]; ES2 cells sorted NCAM−): 150 nM | IC50 ([3]; ES2 cells unsorted): 250 nM | IC50 ([3]; ES-2, 72 hours, conjugates of Route 2 (FIG. 19D), three separate experiments): 25 nM
Compound: COc1cccc2c1C(=O)c1c(O)c3c(c(O)c1C2=O)C[C@@](O)(C(=O)CO)C[C@@H]3O[C@H]1C[C@H](N)[C@H](O)[C@H](C)O1 [DOX, doxorubicin]
IC50 ([1]; HUVEC p3, PGA-PTX-DOX is the Route 1 conjugate (FIG. 18)): 7 nM | IC50 ([1]; HUVEC proliferation, drug alone or varied with a set concentration of the other drug): 40 nM | IC20 [2]: 60 nM | IC 40 [2]: 250 nM | IC 60 [2]: 950 nM | IC50 ([4]; SK N MC cells sorted NCAM+): 90 nM | IC50 ([4]; SK N MC cells sorted NCAM−): 40 nM | IC50 ([4]; SK N MC cells unsorted): 50 nM | cell internalization [5]: rapidly internalized in the cells | incubation time after which DOX is accumulated in the nucleus [5]: 6 h

Compound: PGA-C3: PGA conjugated to C3 peptide (SEQ ID NO:3) through the N-terminal amine ({PGA}-GASKKPKRNIKA; reading uncertain)
binding to cells ([6]; ES-2, FITC-labeled polymers): bound more strongly than non-targeted PGA and similarly to free C3 peptide

Compound: CF-labeled C3: C3 (SEQ ID NO:3) labeled at the N-terminal with 5(6)-carboxyfluorescein ({5(6)‑carboxyfluorescein}-GASKKPKRNIKA)
binding to cells ([6]; ES2, CF-labeled peptide alone): bound at levels much higher than NCAM expression | binding when incubated with NCAM antibody or bFGF ([6]; ES2, competition): its binding decreased

Compound: GASKKPAANIKA [C3ala, control peptide]
binding [7]: 20%

IC50 ([2]; Homo sapiens, MDA-MB-231, 72 hours, PTX- and DOX-equivalent concentrations, Route 2 conjugate (FIG. 19D)): 2 nM | IC50 ([3]; Homo sapiens, ES-2, ES2 cells sorted NCAM+): 70 nM | IC50 ([3]; Homo sapiens, ES-2, ES2 cells sorted NCAM−): 90 nM | IC50 ([3]; Homo sapiens, ES-2, ES2 cells unsorted): 70 nM | IC50 ([3]; Homo sapiens, Ovarian carcinoma cell, 72 h, ES-2, 72 hours, conjugates of Route 2 (FIG. 19D), three separate experiments): 6 nM
Compound: CC(=O)O[C@H]1C(=O)[C@@]2(C)[C@H]([C@H](OC(=O)c3ccccc3)[C@]3(O)C[C@H](OC(=O)[C@H](O)[C@@H](NC(=O)c4ccccc4)c4ccccc4)C(C)=C1C3(C)C)[C@]1(OC(C)=O)CO[C@@H]1C[C@@H]2O [PTX, Paclitaxel]
IC50 ([1]; Homo sapiens, HUVEC, HUVEC p3, PGA-PTX-DOX is the Route 1 conjugate (FIG. 18)): 1 nM | IC50 ([1]; Homo sapiens, HUVEC, HUVEC proliferation, drug alone or varied with a set concentration of the other drug): 7 nM | IC20 ([2]; Homo sapiens): 2.5 nM | IC 40 [2]: 7 nM | IC 60 [2]: 100 nM | IC50 ([4]; Homo sapiens, SK N MC cells unsorted): 45 nM

Compound: GESDDEND [scrambled peptide]
binding to cells [8]: does not

Compound: GDDSDEEN [NTP, NCAM-targeting peptide]
binding to cells [8]: binds to the cells

Compound: GASKKPKRNIKA [C3, NCAM targeting peptide C3 with added N-terminal glycine]
binding [7]: 50%
